The text below walks through data of publication PMC6270455, “Antibacterial and Herbicidal Activity of Ring-Substituted 3-Hydroxynaphthalene-2-carboxanilides” (Molecules, 2013).

≈ marks a conversion by molar mass, not a printed value. Where two headings read alike, the source gives them in different places.

By MIC is commonly meant the smallest concentration in the dilution series that meets the test's criterion for growth inhibition. A low value points to greater potency. Broadly, the IC50 is the concentration that inhibits the measured activity by half. The low end stands for inhibition by little substance, the high end for a need for much substance.

One series deals with M. kansasii DSM 44162. Briefly: In vitro antimycobacterial evaluation, broth dilution micro-method. It is filed as cell-based. The conditions noted are these: Mycobacterium kansasii, DSM44162, 168 h, Middlebrook 7H9, 7 days, 37 °C.
The test system of series [1] is Mycobacterium marinum CAMP 5644. The series is described as above. It is filed as cell-based. The conditions noted are these: CAMP5644, 504 h, Middlebrook 7H9, 21 days, 28 °C.
In series [2] the test system is photosynthetic electron transport (PET) in spinach chloroplasts. Description: Inhibition of photosynthetic electron transport (PET) in spinach chloroplasts (DCPIP photoreduction). The format is biochemical, Spinacia oleracea L. The procedure:
Chloroplasts were prepared from spinach (Spinacia oleracea L.) according to Masarovicova and Kralova. The inhibition of photosynthetic electron transport (PET) in spinach chloroplasts was determined spectrophotometrically (Genesys 6, Thermo Scientific), using an artificial electron acceptor 2,6-dichlorophenol-indophenol (DCIPP) according to Kralova et al., and the rate of photosynthetic electron transport was monitored as a photoreduction of DCPIP. The measurements were carried out in phosphate buffer (0.02 mol/L, pH 7.2) containing sucrose (0.4 mol/L), MgCl2 (0.005 mol/L) and NaCl (0.015 mol/L). The chlorophyll content was 30 mg/L in these experiments and the samples were irradiated (~100 W/m^2 with 10 cm distance) with a halogen lamp (250 W) using a 4 cm water filter to prevent warming of the samples (suspension temperature 22 °C). The studied compounds were dissolved in DMSO due to their limited water solubility. […] The inhibitory efficiency of the studied compounds was expressed by IC50 values, i.e., by molar concentration of the compounds causing 50% decrease in the oxygen evolution rate relative to the untreated control.

Series [3] deals with methicillin-resistant Staphylococcus aureus (MRSA) 63718. Briefly: In vitro antibacterial susceptibility testing, broth dilution micro-method. It is filed as cell-based. The settings on record: clinical isolate MRSA 63718, MH broth, 24 h, 37 °C; for MIC: Staphylococcus aureus. The procedure: (§1) The synthesized compounds were evaluated for in vitro antibacterial activity against representatives of multidrug-resistant bacteria, clinical isolates of methicillin-resistant Staphylococcus aureus (MRSA) 63718, SA 630 and SA 3202 that were obtained from the National Institute of Public Health, Prague, Czech Republic. Staphylococcus aureus ATCC 29213 was used as a reference and quality control strain. Ampicillin (Sigma-Aldrich) was used as the standard. Prior to testing, each strain was passaged onto nutrient agar (Oxoid, Hampshire, UK) with 5% of bovine blood, and bacterial inocula were prepared by suspending a small portion of bacterial colony in sterile phosphate buffered saline (pH 7.2–7.3). The cell density was adjusted to 0.5 McFarland units using a densitometer (Densi-La-Meter, LIAP, Riga, Latvia). The final inoculum was made by 1:20 dilution of the suspension with the Mueller-Hinton broth (MH broth). […] The broth dilution micro-method modified according to NCCLS guidelines in MH broth was used to determine the minimum inhibitory concentration (MIC). Drug-free controls, sterility controls and controls consisted of MH broth and DMSO alone were included. The determination of results was performed visually after 24 h of static incubation in the darkness at 37 °C in an aerobic atmosphere. The MICs were defined as the lowest concentration of the compound at which no visible bacterial growth was observed.
(Broth dilution looks for growth in wells or tubes with falling amounts of substance.)

In series [4] the test system is Staphylococcus aureus ATCC 29213. The description is as above. It is filed as cell-based. The conditions noted are these: 24 h, 37 °C; for MIC: ATCC29213, MH broth. The procedure:
as §1

Series [5] relates to methicillin-resistant S. aureus SA 3202. Described as above. The conditions noted are these: clinical isolate MRSA SA 3202, MH broth, 24 h, 37 °C; for MIC: Staphylococcus aureus. The format is cell-based, Staphylococcus aureus. The procedure:
as §1

Series [6] relates to methicillin-resistant S. aureus SA 630. Described as above. The format is cell-based, Staphylococcus aureus. The settings on record: clinical isolate MRSA SA 630, MH broth, 24 h, 37 °C; for MIC: Staphylococcus aureus. The procedure: as §1
A short description of series [7]: Lipophilicity determination by RP-HPLC (capacity factor, log k). The format is physicochemical. The settings on record: RP-HPLC capacity factor logarithm; C18 column, MeOH 60% / H2O 40%, 40 °C. The procedure: Lipophilicity of the studied compounds was determined by RP-HPLC as capacity factor logarithm (log k) and calculated as log P using ACD/Percepta software. […] It is important to note that lipophilicity also has a great impact on target and off-target interactions, as mentioned below.
A HPLC system Agilent 1200 equipped with DAD detector (Agilent, Santa Clara, CA, USA) was used. A chromatographic column Symmetry® C18 5 μm, 4.6 × 250 mm, Part No. WAT054275, (Waters Corp., Milford, MA, USA) was used. The HPLC separation process was monitored and evaluated by EZChrom Elite software ver. 3.3.2 (Agilent). Isocratic elution by a mixture of MeOH p.a. (60%) and H2O-HPLC Mili-Q grade (40%) as a mobile phase was used. The total flow of the column was 1.0 mL/min, injection 20 μL, column temperature 40 °C and sample temperature 10 °C. The detection wavelength 210 nm was chosen. The KI methanolic solution was used for the dead time (tD) determination. Retention times (tR) were measured in minutes. The capacity factors k were calculated according to formula k = (tR − tD)/tD, where tR is the retention time of the solute, whereas tD denotes the dead time obtained using an unretained analyte. Log k, calculated from the capacity factor k, is used as the lipophilicity index converted to log P scale.

The subject of series [8] is human monocytic leukemia THP-1 cells. The conditions noted are these: assessed in this line formerly; cited from earlier work.
For series [9] the test system is unchanged. It is filed as cell-based. The settings on record: 24 h. The procedure:
Human monocytic leukemia THP-1 cells were used for in vitro toxicity assay. Cells were obtained from the European Collection of Cell Cultures (ECACC, Salisbury, UK) and routinely cultured in RPMI medium supplemented with 10% fetal bovine serum, 2% L-glutamine, 1% penicillin and streptomycin at 37 °C with 5% CO2. Cytotoxicity was determined using a WST-1 assay kit (Roche Diagnostics, Mannheim, Germany) according to the manufacturer’s instructions. The tested compounds were dissolved in DMSO and added in five increasing concentrations (0.37, 1.1, 3.3, 10, and 30 μmol/L) to the cell suspension in the culture medium. Subsequently, the cells were incubated for 24 h at 37 °C with 5% CO2. WST-1 assays conducted in triplicates were performed as previously described. The median lethal dose values, LD50, were deduced through the production of a dose-response curve. All data were evaluated using GraphPad Prism 5.00 software (GraphPad Software, San Diego, CA, USA).

The mark [10] stands for this setting: phosphate buffer pH 7.2, DCPIP acceptor.
[11] abbreviates: as quoted in the chlorophyll a fluorescence discussion.

Take `O=C(Nc1ccccc1Br)c1cc2ccccc2cc1O` [6a, N-(2-Bromophenyl)-3-hydroxynaphthalene-2-carboxamide]: the minimum inhibitory concentration (MIC) was 748 µM (≈ 256 µg/mL) against M. kansasii DSM 44162; more than 748 µM in series [1]; more than 748 µM in series [3]; more than 748 µM in series [4]; more than 748 µM in series [5]; more than 748 µM in [6]. This compound gave an IC50 in [2] (setting [10]) of 43.2 µM. The compound further had a log k in [7] of 0.9715.

For the compound `CC[C@@]1(O)C(=O)OCc2c1cc1n(c2=O)Cc2cc3ccccc3nc2-1` [camptothecin], the LD50 in [8] is 0.20 ± 0.07 µmol/L.

For the compound `COc1ccccc1NC(=O)c1cc2ccccc2cc1O` [compound 2a, 3-Hydroxy-N-(2-methoxyphenyl)naphthalene-2-carboxamide], the minimal inhibitory concentration (MIC) worked out at 218 µM (≈ 63.9 µg/mL) with M. kansasii DSM 44162; 873 µM (≈ 256 µg/mL) in [1]; 55 µM (≈ 16.1 µg/mL) in series [3]; 55 µM (≈ 16.1 µg/mL) in series [4]; 55 µM (≈ 16.1 µg/mL) in series [5]; 55 µM (≈ 16.1 µg/mL) in series [6]. In addition, it took 59.5 µM to reach half-maximal inhibition in series [2] (setting [10]) (IC50). In series [3], the “MIC MRSA 63718” value worked out at 55 µM (≈ 16.1 µg/mL). For the same compound, the “MIC SA” value in series [4] (MH broth) stood at 55 µM (≈ 16.1 µg/mL). The “MIC MRSA 3202” value in [5] is 55 µM (≈ 16.1 µg/mL). In series [6], the “MIC MRSA 630” value was determined as 55 µM (≈ 16.1 µg/mL). The same compound came in with a log k in series [7] of 0.6916.

`COc1cccc(NC(=O)c2cc3ccccc3cc2O)c1` [compound 2b, 3-Hydroxy-N-(3-methoxyphenyl)naphthalene-2-carboxamide]: the minimum inhibitory concentration (MIC) against M. kansasii DSM 44162 was 54.6 µM (≈ 16 µg/mL); in series [1], more than 873 µM; in series [3], more than 873 µM; in [4], more than 873 µM; in series [5], more than 873 µM; in series [6], more than 873 µM. Further, the IC50 in [2] (setting [11]) and in series [2] (setting [10]) was 53.4 µM throughout. This compound also registered a log k in series [7] of 0.6971.

As for `O=C(Nc1ccccc1C(F)(F)F)c1cc2ccccc2cc1O` [compound 7a, 3-Hydroxy-N-(2-trifluoromethylphenyl)naphthalene-2-carboxamide], the minimum inhibitory concentration (MIC) in the series with M. kansasii DSM 44162 was 193 µM (≈ 63.9 µg/mL); in [1] it was 193 µM (≈ 63.9 µg/mL); in series [3] it was more than 773 µM; in [4] it was more than 773 µM; in [5], 97 µM (≈ 32.1 µg/mL); in series [6], more than 773 µM. This compound registered an LD50 in series [9] of 28.6 ± 0.5 µmol/L. Besides, the IC50 in [2] (setting [11]) and in [2] (setting [10]) was 105 µM in each case. The same compound showed a log k in [7] of 0.8762.

Regarding `O=C(Nc1ccccc1[N+](=O)[O-])c1cc2ccccc2cc1O` [compound 8a, 3-Hydroxy-N-(2-nitrophenyl)naphthalene-2-carboxamide], the minimal inhibitory concentration (MIC) with M. kansasii DSM 44162 is 830 µM (≈ 256 µg/mL); in [1], 830 µM (≈ 256 µg/mL); in series [3], more than 830 µM; in [4], more than 830 µM; in series [5] it was 415 µM (≈ 128 µg/mL); in [6] it was 415 µM (≈ 128 µg/mL). The same compound yielded an IC50 in series [2] (setting [10]) of 107 µM. In addition, in series [7], the log k was 0.8710.

Turning to `O=C(Nc1cccc([N+](=O)[O-])c1)c1cc2ccccc2cc1O` [compound 8b, 3-Hydroxy-N-(3-nitrophenyl)naphthalene-2-carboxamide], the MIC in the series with M. kansasii DSM 44162 was 415 µM (≈ 128 µg/mL); in series [1], more than 830 µM; in [3], more than 830 µM; in series [4], more than 830 µM; in [5] it was more than 830 µM; in series [6], more than 830 µM. In [9], this compound registered an LD50 of 2.5 ± 0.9 µmol/L. The half-inhibitory concentration (IC50) in [2] (setting [10]) is 16.9 µM. The same compound registered a log k in series [7] of 0.8143.

Regarding `O=C(Nc1ccc([N+](=O)[O-])cc1)c1cc2ccccc2cc1O` [compound 8c, 3-Hydroxy-N-(4-nitrophenyl)naphthalene-2-carboxamide], the MIC was 13 µM (≈ 4.01 µg/mL) against M. kansasii DSM 44162; more than 830 µM in [1]; more than 830 µM in series [3]; more than 830 µM in series [4]; more than 830 µM in series [5]; more than 830 µM in series [6]. The compound also showed a half-inhibitory concentration (IC50) in [2] (setting [10]) of 188 µM. Besides, the log k in [7] came to 0.9175.
